Counter-ions that a name gives are not always drawn.
Experiments:
[1] = molecular target: T1, NHE3 (Homo sapiens, UniProt P48764); test: Determination of the NHE-inhibitory effect (recovery of intracellular pH after acidification, BCECF fluorescence); type: cell-based; settings: pH recovery recorded for three minutes with NHE3; BCECF-loaded cells
T1 sequence (P48764 26-834): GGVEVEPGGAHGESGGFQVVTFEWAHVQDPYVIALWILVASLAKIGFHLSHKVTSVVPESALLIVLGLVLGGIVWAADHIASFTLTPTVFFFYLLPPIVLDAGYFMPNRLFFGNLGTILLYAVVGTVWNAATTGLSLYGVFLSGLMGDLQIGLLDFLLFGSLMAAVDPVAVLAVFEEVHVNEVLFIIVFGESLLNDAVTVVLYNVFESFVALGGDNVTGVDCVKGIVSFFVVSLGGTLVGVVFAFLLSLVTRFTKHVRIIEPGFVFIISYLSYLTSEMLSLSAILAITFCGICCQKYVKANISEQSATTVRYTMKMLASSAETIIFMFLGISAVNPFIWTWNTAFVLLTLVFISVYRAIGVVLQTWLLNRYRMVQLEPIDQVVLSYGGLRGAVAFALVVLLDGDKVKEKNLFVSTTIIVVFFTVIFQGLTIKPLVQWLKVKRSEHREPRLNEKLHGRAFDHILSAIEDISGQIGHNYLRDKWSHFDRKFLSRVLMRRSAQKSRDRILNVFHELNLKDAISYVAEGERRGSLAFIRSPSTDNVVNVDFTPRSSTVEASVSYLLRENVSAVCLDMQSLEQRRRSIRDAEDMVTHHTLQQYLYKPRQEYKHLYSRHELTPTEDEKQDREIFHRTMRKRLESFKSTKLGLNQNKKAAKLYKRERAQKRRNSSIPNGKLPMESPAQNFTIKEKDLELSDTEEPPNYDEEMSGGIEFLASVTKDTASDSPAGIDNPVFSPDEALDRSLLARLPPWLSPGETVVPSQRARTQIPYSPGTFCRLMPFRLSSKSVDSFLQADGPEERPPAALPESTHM
Description: Description of Assay: Determination of the NHE-Inhibitory Effect
In this assay, the recovery of the intracellular pH (pHj) after an acidification which occurs even under bicarbonate-free conditions with functional NHE was determined. To this end, the pHj was determined using the pH-sensitive fluorescent dye BCECF (Calbiochem, the precursor BCECF-AM was employed). The cells were initially loaded with BCECF. The BCECF fluorescence was determined in a ratio fluorescence spectrometer (Photon Technology International, South Brunswick, N.J., USA) with excitation wavelengths of 505 and 440 nm and an emission wavelength of 535 nm and converted into the pHj using calibration plots. The cells had been incubated in NH4Cl buffer (pH 7.4) for the BCECF loading (NH4Cl buffer: 115 mM NaCl, 20 mM NH4Cl, 5 mM KCl, 1 mM CaCl2, 1 mM MgSO4, 20 mM Hepes, 5 mM glucose, 1 mg/ml BSA; a pH of 7.4 was adjusted with 1 M NaOH). The intracellular acidification was induced by adding 975 μl of an NH4Cl-free buffer (see below) to 25 μl aliquots of the cells incubated in NH4Cl buffer. The subsequent rate of pH recovery was recorded for two minutes with NHE1, five minutes with NHE2 and three minutes with NHE3. To calculate the inhibitory power of the tested substances, the cells were initially investigated in buffers with which there was complete or absolutely no pH recovery. For complete pH recovery (100%), the cells were incubated in Na^+-containing buffer (133.8 mM NaCl, 4.7 mM KCl, 1.25 mM CaCl2, 1.25 mM MgCl2, 0.97 mM Na2HPO4, 0.23 mM NaH2PO4, 5 mM Hepes, 5 mM glucose, a pH of 7.0 was adjusted with 1 M NaOH). To determine the 0% value, the cells were incubated in an Na^+-free buffer (133.8 mM choline chloride, 4.7 mM KCl, 1.25 mM CaCl2, 1.25 mM MgCl2, 0.97 mM K2HPO4, 0.23 mM KH2PO4, 5 mM Hepes, 5 mM glucose, a pH of 7.0 was adjusted with 1 M NaOH). The substances to be tested were made up in the Na^+-containing buffer. The recovery of the intracellular pH at each tested concentration of a substance was expressed as a percentage of the maximum recovery. The IC50 of the respective substance for the individual NHE subtypes was calculated from the percentages of pH recovery using the Sigma Plot program.

Structure (SMILES)	melting point [°C]	IC50 [1] [µM]
NC1=NCC(c2ccc(N)cc2)c2cc(Cl)ccc21 (centres unmarked) (as salt: hydrochloride) [Example 1A, 1-Amino-4-(4-aminophenyl)-6-chloro-3,4-dihydroisoquinoline Hydrochloride]	278 to 284	–
NC1=NCC(c2ccc(N)cc2)c2cc(Cl)ccc21 (centres unmarked) [Example 1A, 1-Amino-4-(4-aminophenyl)-6-chloro-3,4-dihydroisoquinoline Hydrochloride]	–	1.95
NC1=NCC(c2ccc(N)cc2)c2ccccc21 (centres unmarked) [Example 1B, 1-amino-4-(4-aminophenyl)-3,4-dihydroisoquinoline Hydrochloride]	–	8.24
NC1=NCC(c2ccccc2N)c2cc(Cl)ccc21 (centres unmarked) [Example 2, 1-Amino-4-(2-aminophenyl)-6-chloro-3,4-dihydroisoquinoline Hydrochloride]	–	1.63
CNC1=NCC(c2ccc(N)cc2)c2cc(Cl)ccc21 (centres unmarked) [Example 3, 4-(4-Aminophenyl)-6-chloro-1-methylamino-3,4-dihydroisoquinoline Hydrochloride]	–	4.93

Reference: patent US8124621B2, “Substituted 1-amino-4-phenyl-dihydroisoquinolines, methods for the production thereof, use thereof as a medicament, and medicaments containing them” (Sanofi-Aventis, priority 2006, dated 2012)
